These are literature values, as cited in US11066360B2, “Human plasma kallikrein inhibitors” (priority 2015, dated 2021).

Where a SMILES comes first, the peptide text is derived from it.

The test system of data set [1] is mouse model of middle cerebral artery occlusion (MCAO).
The subject of data set [2] is LPS- or bacterial-induced sepsis in animals.
Data set [3] concerns sepsis patients.
In data set [4] the test system is patients with hereditary angioedema (HAE). The conditions noted are these: human, in vivo.
Data set [5] has as its system rat models of arthritis.

As to “C1-inhibitor: a physiological inhibitor (C1-inhibitor) [Compound C1-inhibitor]”, the infarct size entry in data set [1] is listed as “reduced”. In data set [2], the lesions result is reported as “reduce” and the “vascular permeability in multiple organs” value is recorded as “reduce”. Also, the “clinical improvement in sepsis patients” value in data set [3] is “Clinical improvement”.
`NC(N)=NCCC[C@@H](N)C(=O)N[C@@H](CCCN=C(N)N)C(=O)N1CCC[C@H]1C(=O)N1C[C@H](O)C[C@H]1C(=O)NCC(=O)N[C@@H](Cc1cccs1)C(=O)N[C@@H](CO)C(=O)N1Cc2ccccc2C[C@@H]1C(=O)N1[C@H](C(=O)N[C@@H](CCCN=C(N)N)C(=O)O)C[C@@H]2CCCC[C@@H]21` [Icatibant]: the “treating HAE” value in data set [4] is listed as “effective”.
In the case of `Cl.NCC1CCC(C(=O)N[C@@H](Cc2ccccc2)C(=O)Nc2ccc(CC(=O)O)cc2)CC1` (some centres unmarked) [PKSI-527], in data set [5], the joint swelling result was “reduce”.
With `NC(N)=NCCC[C@H](NC(=O)[C@H](Cc1ccccc1)NC(=O)[C@H]1CCCN1)C(=O)CCl` [CMK, H-D-Pro-Phe-Arg-chloromethylketone] (HELM PEPTIDE1{[dP].F.R.[ClC[*:1]]}$$$$V2.0), in data set [2], the lesions entry is “reduce” and the “vascular permeability in multiple organs” value was “reduce”.
